Data published in patent publication US5693524A, “Anticoccidial composition of UK-61 689 and Actinomadura mycelium” (Pfizer Inc., priority 1995, dated 1997).
≈ marks a conversion by molar mass, not a printed value. Where two headings read alike, the source gives them in different places.

Columns and labels:
coccidiosis = details: EP application 169011; cited from earlier work
Clostridium perfringens = assay: microbe, parasite or virus in culture; assay type: cell-based; details: 24 h
Actinomyces pyogenes = assay: In vitro minimal inhibitory concentration (MIC), Actinomyces pyogenes; assay type: cell-based; details: 24 hours
Treponema hyodysenteriae = assay: In vitro minimal inhibitory concentration (MIC), Treponema hyodysenteriae; assay type: cell-based
[1] = tested on: Gram-positive microorganisms; assay: Inhibitory action against growth of Gram-positive microorganisms in vitro; assay type: cell-based
Description: In Table I, below, the results of in vitro tests are summarized. For this test each organism is inoculated in a series of test tubes containing nutrient medium and varying concentrations of Antibiotic UK-61,689 to determine the minimal concentration of the compound in g/ml which inhibits the growth of the organism over a period of 24 hours (MIC).

[2] = tested on: coccidial infections in poultry; assay: Activity against coccidial infections in poultry (lesion scores)
E. maxima = assay: Efficacy against coccidial infection in chickens, E. maxima (lesion scores 0 to 3); details: in diet at levels of 15 to 120 ppm
E. brunetti = assay: Efficacy against coccidial infection in chickens, E. brunetti (lesion scores 0 to 3); details: in diet at levels of 15 to 120 ppm
E. necatrix = assay: Efficacy against coccidial infection in chickens, E. necatrix (lesion scores 0 to 3); details: in diet at levels of 15 to 120 ppm
E. acervulina = assay: Efficacy against coccidial infection in chickens, E. acervulina (lesion scores 0 to 3); details: in diet at levels of 15 to 120 ppm, evaluated after five days
Eimeria tenella = assay: Efficacy against coccidial infection in chickens, Eimeria tenella (lesion scores 0 to 4); details: in diet at levels of 15 to 120 ppm

In the case of COC1CCC(OC2CC(C3OC(C)(OC)C(C)CC3C)OC2C2(C)CCC(C3(C)CCC4(CC(O)C(C)C(C(C)C5OC(O)(CC(=O)O)C(C)C(OC6CCC(OC)C(C)O6)C5OC)O4)O3)O2)OC1C (stereo not shown) [CP-70,228], the “antibiotic / anticoccidial effectiveness” value (coccidiosis) is listed as “antibiotically effective in controlling coccidiosis”.

In the case of COC1CCC(OC2CC(C3OC(C)(OC)C(C)CC3C)OC2C2(C)CCC(C3(C)CCC4(CC(OC)C(C)C(C(C)C5OC(O)(CC(=O)O)C(C)C(OC6CCC(OC)C(C)O6)C5OC)O4)O3)O2)OC1C (stereo not shown) [CP-70,828], the “antibiotic / anticoccidial effectiveness” value (coccidiosis) is listed as “antibiotically effective in controlling coccidiosis”.

For COC1CCC(OC2CC(C3OC(C)(O)C(C)CC3C)OC2C2(C)CCC(C3(C)CCC4(CC(O)C(C)C(C(C)C5OC(O)(CC(=O)O)C(C)C(OC6CCC(OC)C(C)O6)C5OC)O4)O3)O2)OC1C (stereo not shown) [UK-58,852], the “antibiotic / anticoccidial effectiveness” value (coccidiosis) is listed as “effective antibiotic, especially anticoccidial agent”.

Compound COC1CCC(OC2CC(C3OC(C)(O)C(C)CC3C)OC2C2(C)CCC(C3(C)CCC4(CC(O)C(C)C(C(C)C5OC(O)(CC(=O)O)C(C)C(O)C5OC)O4)O3)O2)OC1C (stereo not shown) [UK-61,689] has an MIC (Clostridium perfringens; Clostridium perfringens strain 10A006) of 50 µg/mL (≈ 57.3 µM), an MIC (Clostridium perfringens; Clostridium perfringens strain 10A009) of 12.5 µg/mL (≈ 14.3 µM) and an MIC (Actinomyces pyogenes; Actinomyces pyogenes strain 14D008) of 50 µg/mL (≈ 57.3 µM). The MIC (Actinomyces pyogenes; Actinomyces pyogenes strain 14D011) was 50 µg/mL (≈ 57.3 µM), the MIC (Actinomyces pyogenes; Trueperella pyogenes, Actinomyces pyogenes strain 14D002, read-out: MIC) was 50 µg/mL (≈ 57.3 µM) and the MIC (Treponema hyodysenteriae; Brachyspira hyodysenteriae, 24 h, Treponema hyodysenteriae strain 94A001) was 3.12 µg/mL (≈ 3.57 µM). It also gave an MIC (Treponema hyodysenteriae; Brachyspira hyodysenteriae, 24 h, Treponema hyodysenteriae strain 94A002) of 3.12 µg/mL (≈ 3.57 µM), an MIC (Treponema hyodysenteriae; Brachyspira hyodysenteriae, Treponema hyodysenteriae strain 94A007, 24 hours, read-out: MIC) of 1.56 µg/mL (≈ 1.79 µM) and an MIC (Treponema hyodysenteriae; Treponema hyodysenteriae strain 94A008, 24 hours) of 1.56 µg/mL (≈ 1.79 µM). For the same compound, the “inhibitory action against the growth of Gram-positive microorganisms” value [1] was “exhibits inhibitory action against the growth of a number of Gram-positive microorganisms”, the “activity against coccidial infections in poultry” value [2] was “excellent activity” and the “controlling infections due to E. maxima” value (E. maxima) was “effective in controlling infections”. For the same compound, the “controlling infections due to E. brunetti” value (E. brunetti) was “effective in controlling infections”, the “controlling infections due to E. necatrix” value (E. necatrix) was “effective in controlling infections” and the “controlling infections due to E. acervulina” value (E. acervulina) was “effective in controlling infections”. The “controlling infections due to Eimeria tenella” value (Eimeria tenella) was “effective in controlling infections”.
